In brackets after ≈: the same amount, converted by molar mass.
Columns and labels:
physchem [1] = conditions: octan-1-ol/water
physchem [2] = conditions: pH 7.4 buffer

| Structure (SMILES) | logD (physchem [1]; pH 7.4) | solubility thermodynamic (physchem [2]) | logD (physchem [1]; pH 7.4, LogD7.4) |
| --- | --- | --- | --- |
| CC12CCC(=O)C=C1CCC1C2CCC2(C)C(O)CCC12 (centres undefined) | 3.3 | 40.7 µM (≈ 11.7 µg/mL) | – |
| CN(C)CC(O)COc1ccc(Nc2nccc(Nc3cccc(Cl)c3)n2)cc1 (centres undefined) | – | 120 µM (≈ 49.8 µg/mL) | 2.5 |
| Cc1cccc(C[C@H](NC(=O)c2cc(C(C)(C)C)nn2C)C(=O)NCC#N)c1 | – | 63.1 µM (≈ 24.1 µg/mL) | 3.1 |
| COc1cc2ncnc(Nc3cc(NC(=O)c4cccc(N5CCOCC5)c4)ccc3C)c2cc1OC | – | 14.5 µM (≈ 7.24 µg/mL) | 3.6 |
| N#Cc1cnn(-c2ccccc2)c1NC(=O)CN1CCN(c2ccccc2)CC1 | – | 25.1 µM (≈ 9.7 µg/mL) | 2.3 |
| Nc1nc(-c2ccccn2)nc(N)c1Cc1ccccc1F | – | 170 µM (≈ 50.1 µg/mL) | 2.12 |
| CS(=O)(=O)c1cccc(Nc2nccc(Nc3cccc4ncoc34)n2)c1 | – | 5.6 µM (≈ 2.14 µg/mL) | 2.5 |
| COc1cc(N2CCN(C(C)=O)CC2)ccc1Nc1ncc(Cl)c(-c2cnc3cc(CO)ccn23)n1 | – | 22.9 µM (≈ 11.6 µg/mL) | 3.1 |
| C[C@@H]1CN(Cc2ccc(F)cc2)[C@@H](C)CN1C(=O)c1cc2c(C(=O)C(=O)N(C)C)cn(C)c2cc1Cl [TALMAPIMOD] | 3.6 | 52.5 µM (≈ 26.9 µg/mL) | – |
| c1ccc(-c2n[nH]cc2-c2ccnc3ccccc23)nc1 | – | 26.3 µM (≈ 7.16 µg/mL) | 2.57 |
| COc1ccc(C(=O)C2CCN(C(=O)c3ccc(F)cc3)CC2)cc1 | – | 204 µM (≈ 69.7 µg/mL) | 2.92 |
| C[C@@H]1CN(c2nc(N3CCOCC3)c3ccc(Nc4ccccc4)nc3n2)C[C@H](C)O1 | – | 1.4 µM (≈ 0.589 µg/mL) | 4.12 |
| Cc1nc(-c2ccccc2)c(-c2ccc(CN3CCC(n4c(=O)[nH]c5ccccc54)CC3)cc2)[nH]c1=O | 3.9 | 27.5 µM (≈ 13.5 µg/mL) | – |
| O=C(Nc1ccc(N2CCOCC2)cc1)c1nnc(NC(=O)C2(c3ccc(Cl)cc3)CCC2)o1 | – | 66.1 µM (≈ 31.9 µg/mL) | 3.2 |
| O=c1cc(-c2ccc(O)cc2)[nH]c2ccccc12 | – | 4.7 µM (≈ 1.12 µg/mL) | 2.34 |
| CN1CCN([C@H]2C[C@@H](c3nc(-c4ccc5ccc(-c6ccccc6)nc5c4)c4c(N)nccn43)C2)CC1 | – | 204 µM (≈ 100 µg/mL) | 3.2 |
| Cc1ccc(NC(=O)c2ccoc2)cc1-n1cnc2ccc(N3CCN(C)CC3)cc2c1=O | – | 1290 µM (≈ 571 µg/mL) | 2.43 |
| O=C(Nc1ccccc1)c1ccc(OCCCN2CCCC2)cc1OCc1ccccc1F | – | 141 µM (≈ 63.4 µg/mL) | 3.85 |
| COc1cc(N2CCN(C(C)=O)CC2)ccc1Nc1ncc(C)c(-c2cnc3ccccn23)n1 | – | 5 µM (≈ 2.29 µg/mL) | 2.9 |
| CCCCn1c(Cc2cc(OC)c(OC)c(OC)c2)nc2c(N)ncnc21 | – | 85.1 µM (≈ 31.6 µg/mL) | 2.39 |
| CCCSc1nc(NC)ccc1C(=O)N[C@H]1C2CC3CC1C[C@](O)(C3)C2 | – | 46.8 µM (≈ 17.6 µg/mL) | 3.27 |
| O=C(Nc1ccc(N2CCOCC2)nc1)c1nnc(Nc2ccccc2)o1 | – | 1.9 µM (≈ 0.696 µg/mL) | 2.9 |
| CCCS(=O)(=O)c1ccc(Nc2nccc(-c3cnc(C)n3C(C)C)n2)cc1 | – | 138 µM (≈ 55.1 µg/mL) | 3.37 |
| CCc1[nH]nc(NC(=O)Cc2ncc(Oc3ccnc4cc(OC)c(OC)cc34)cc2OC)c1C | – | 37.2 µM (≈ 17.8 µg/mL) | 2.79 |
| COc1ccc(S(=O)(=O)Nc2ccc(/C=C/C(=O)Nc3ccccc3N)cc2)cc1OC | – | 7.8 µM (≈ 3.54 µg/mL) | 2.56 |
| COc1cc(N2CCN(C(C)=O)CC2)ccc1Nc1ncc(C(F)(F)F)c(-c2cnc3ccccn23)n1 | – | 8.9 µM (≈ 4.55 µg/mL) | 3.7 |

| Structure (SMILES) | logD (physchem [1]; pH 7.4) | solubility thermodynamic (physchem [2]) | logD (physchem [1]; pH 7.4, LogD7.4) |
| --- | --- | --- | --- |
| CCCSc1nc(N2CCOCC2)ccc1C(=O)N[C@H]1C2CC3CC1C[C@](O)(C3)C2 | – | 479 µM (≈ 207 µg/mL) | 3.2 |
| Cn1c(=O)c2[nH]c(-c3cccnc3)nc2n(C)c1=O | – | 219 µM (≈ 56.3 µg/mL) | 0.7 |
| COc1cc2ncnc(Nc3ccc(F)c(Cl)c3)c2cc1OCCN1CCN(C)CC1 | – | 64.6 µM (≈ 28.8 µg/mL) | 3.3 |
| Cc1c(Oc2ccc(S(C)(=O)=O)cc2F)ncnc1OC1CCN(C(=O)OC(C)C)CC1 | – | 3 µM (≈ 1.4 µg/mL) | 3.7 |
| O=C(Nc1ccc(Cl)c(Cl)c1)N1CCN(C[C@@H]2CCCN(C3CC3)C2)CC1 | – | 288 µM (≈ 119 µg/mL) | 3.57 |
| Cc1nc2ccc(Cl)cn2c1-c1ccnc(N)n1 | – | 759 µM (≈ 197 µg/mL) | 2.49 |
| CN(C)CCOc1ccc(-c2oc3ncnc(NC[C@@H]4CCCO4)c3c2-c2ccccc2)cc1 | – | 69.2 µM (≈ 31.7 µg/mL) | 3.6 |
| Cc1cc(Oc2ccnc(Nc3ccc(S(N)(=O)=O)cc3)c2)c(-c2ccccn2)nc1C | – | 2.5 µM (≈ 1.12 µg/mL) | 2.34 |
| COc1cc(C(=O)NS(=O)(=O)c2ccccc2)ccc1Cn1ccc2ccc(NC(=O)OC3CCCC3)cc21 | – | 5.1 µM (≈ 2.79 µg/mL) | 2.2 |
| FC(F)(F)c1nnc2ccc(NCc3cccnc3)nn12 | – | 380 µM (≈ 112 µg/mL) | 2.06 |
| Oc1nc(-c2ccccc2)c(-c2ccccc2)o1 | – | 107 µM (≈ 25.4 µg/mL) | 3.42 |
| COc1cc2ncnc(Nc3cc(NC(=O)c4ccnc(N5CCOCC5)c4)ccc3C)c2cc1OCCN1CCOCC1 | – | 66.1 µM (≈ 39.6 µg/mL) | 3.19 |
| CN(C(=O)c1ccncc1)C1CCN(CCC(c2ccccc2)c2ccccc2)CC1 | – | 537 µM (≈ 222 µg/mL) | 2.8 |
| CCc1cccc(CC)c1NC(=O)N1Cc2n[nH]c(NC(=O)c3ccc(N4CCN(C)CC4)cc3)c2C1 [PHA-680632] | – | 107 µM (≈ 53.8 µg/mL) | 3.31 |
| c1nc(N2CCCCC2)c2nc[nH]c2n1 | – | 501 µM (≈ 102 µg/mL) | 1.84 |
| CCCc1cc(Nc2nc(NCc3cc(C)no3)ncc2Br)n[nH]1 | – | 2.7 µM (≈ 1.06 µg/mL) | 3.63 |
| Cn1cnc(-c2ccccc2)c1-c1nc2c(N)ncnc2s1 | – | 162 µM (≈ 50 µg/mL) | 2.69 |
| Cc1nc(C)c(C(=O)N[C@@H](Cc2cccc(Cl)c2)C(=O)NCC#N)s1 | – | 57.5 µM (≈ 21.7 µg/mL) | 2 |
| O=C(Nc1ccccc1-c1ccccc1)OC1CCN(CCCCCCCCCNC[C@H](O)c2ccc(O)c3[nH]c(=O)ccc23)CC1 | – | 525 µM (≈ 336 µg/mL) | 2.16 |
| FC(F)(F)c1nnc2ccc(NCn3nnc4ccccc43)nn12 | – | 18.2 µM (≈ 6.08 µg/mL) | 2.34 |
| CC(=O)Nc1nc(-c2ccccc2)ns1 | 2.8 | 182 µM (≈ 39.9 µg/mL) | – |
| O=CN(O)C1(CS(=O)(=O)N2CCN(c3ccc(F)cc3)CC2)CCC1 | – | 490 µM (≈ 182 µg/mL) | 1.34 |
| c1cc(Nc2ccnc(Nc3cc(N4CCOCC4)cc(N4CCOCC4)c3)n2)c2cn[nH]c2c1 | – | 2.5 µM (≈ 1.18 µg/mL) | 3.05 |
| CN1CC(n2nccc2-c2cc(Cl)ccc2Oc2cc(F)c(S(=O)(=O)Nc3ncns3)cc2F)C1 | – | 47.9 µM (≈ 25.8 µg/mL) | 1 |
| Oc1ncnc2scc(-c3ccsc3)c12 | – | 178 µM (≈ 41.7 µg/mL) | 2.25 |
| Cc1c(Cl)cccc1S(=O)(=O)Nc1nc(CC(=O)N2CCN(C)CC2)cs1 | 0.57 | 1100 µM (≈ 470 µg/mL) | – |

| Structure (SMILES) | logD (physchem [1]; pH 7.4) | solubility thermodynamic (physchem [2]) | logD (physchem [1]; pH 7.4, LogD7.4) |
| --- | --- | --- | --- |
| Cc1ccc(CO)cc1N(C)c1ccnc(Nc2cc(CN3CCOCC3)cc(N3CCOCC3)c2)n1 | – | 372 µM (≈ 187 µg/mL) | 3 |
| O=C(O)CC(=O)N[C@@H]1c2ccccc2C[C@H]1NC(=O)c1cc2sc(Cl)c(Cl)c2[nH]1 | – | 1170 µM (≈ 531 µg/mL) | 1.18 |
| CC(=O)Nc1ccc(C(=O)Nc2ccccc2N)cc1 [TACEDINALINE] | – | 631 µM (≈ 170 µg/mL) | 0.82 |
| CCS(=O)(=O)c1ccc(Oc2cc3nc(-c4ccccn4)[nH]c3cc2CN2C(=O)CCC2=O)cc1 | – | 30.2 µM (≈ 14.8 µg/mL) | 2 |
| O=S(=O)(c1cccc(-c2cn3cccnc3n2)c1)N1CCOCC1 | – | 39.8 µM (≈ 13.7 µg/mL) | 1.3 |
| CC(C)(C)Cn1c(CN2C(=O)CC3(CCNCC3)C2=O)cc2cnc(C#N)nc21 | – | 575 µM (≈ 227 µg/mL) | 0.75 |
| O=C(Nc1ccccc1)c1ccc(OCCCN2CCCC2)cc1OCc1cccc(F)c1 | – | 44.7 µM (≈ 20 µg/mL) | 3.67 |
| Cc1ccc(NC(=O)N2CCN(C[C@@H]3CCCN(C4CC4)C3)CC2)cc1Cl | – | 575 µM (≈ 225 µg/mL) | 3.37 |
| CCn1c(=O)ccc2cnc(Nc3ccc(OC)c(OC)c3)nc21 | – | 1.6 µM (≈ 0.522 µg/mL) | 2.7 |
| Oc1cc(OCc2ccccc2)ccn1 | – | 1230 µM (≈ 248 µg/mL) | 1.69 |
| CS(=O)(=O)Nc1cccc(NC(=O)CN2CCN(C(=O)C[C@H](N)Cc3ccc(F)c(F)c3)[C@H](Cc3ccccc3)C2)c1 | – | 661 µM (≈ 396 µg/mL) | 2.06 |
| O=c1cc(N2CCOCC2)nc2c3ccccc3ccn12 | – | 44.7 µM (≈ 12.6 µg/mL) | 2.78 |
| N#Cc1cnn(-c2ccccc2)c1NC(=O)CN1CCOCC1 | – | 1020 µM (≈ 319 µg/mL) | 0.5 |
| COc1ccc(Nc2cc(Nc3ccc(OCC(O)CN(C)C)cc3)ncn2)cc1 (centres undefined) | – | 12 µM (≈ 4.91 µg/mL) | 1.5 |
| COc1cccc(-c2c[nH]c(-c3ccccc3)n2)c1 | – | 36.3 µM (≈ 9.09 µg/mL) | 3.8 |
| COc1cc(OC2CCNCC2)ccc1Nc1ncc(Cl)c(-c2cnc3ccccn23)n1 | – | 30.9 µM (≈ 13.9 µg/mL) | 1.8 |
| Cc1nc(C)c(-c2ccc3c(c2)CC[C@]32CC[C@@H](Cc3nnn[nH]3)CC2)nc1C(N)=O | – | 77.6 µM (≈ 32.4 µg/mL) | 2 |
| CS(=O)(=O)c1ccc(Oc2ccc(C#C[C@]3(O)CN4CCC3CC4)cc2)cc1 | 1.51 | 457 µM (≈ 182 µg/mL) | – |
| COCCCc1cc(Nc2nc(NCc3cc(C)no3)ncc2Br)[nH]n1 | – | 120 µM (≈ 50.8 µg/mL) | 3.07 |
| Cc1cc(CCC2CCN(S(=O)(=O)CC3(N(O)C=O)CCOCC3)CC2)c(C)cn1 | – | 1100 µM (≈ 482 µg/mL) | 1.43 |
| CS(=O)(=O)n1c2ccccc2c2cc(NC(=O)CCc3ccncc3)ccc21 | – | 22.9 µM (≈ 9.01 µg/mL) | 3.4 |
| COc1cc2ncc(C(N)=O)c(Nc3ccccc3F)c2cc1OC | – | 21.9 µM (≈ 7.48 µg/mL) | 2.81 |
| COC1(c2cc(F)cc(OCc3ccc4c(ccc(=O)n4C)c3)c2)CCOCC1 [ZD-2138] | – | 3.2 µM (≈ 1.27 µg/mL) | 3.52 |
| COCCCNS(=O)(=O)c1ccc(Nc2nccc(-c3cnc4ccccn34)n2)cc1 | – | 2.4 µM (≈ 1.05 µg/mL) | 3.41 |
| O=C(c1ccc(F)cc1)C1CCN(C(=S)Nc2ccc(F)cc2)CC1 | – | 2.5 µM (≈ 0.901 µg/mL) | 3.4 |

From ChEMBL document CHEMBL3301361, “Experimental in vitro DMPK and physicochemical data on a set of publicly disclosed compounds”
